In patent US20240238300A1, “TREATMENT METHODS FOR SUBJECTS WITH CANCER HAVING AN ABERRATION IN EGFR AND/OR HER2” (TAIHO PHARMACEUTICAL CO., LTD., priority 2021, published 2024):

Key:
[1] = system: MDA-MB-175VII cells (DOC4-NRG1 fusion); assay: growth inhibitory effect in NRG1 fusion-driven cancer cell line (GI50); assay type: cell-based; conditions: Homo sapiens, mean of 3-4 independent experiments
Procedure: GI50 values were also determined for currently approved EGFR/HER2 tyrosine kinase inhibitors: afatinib, osimertinib, tucatinib, lapatinib, and neratinib, and one investigational drug (poziotinib). Mean values were determined from 3-4 independent experiments.

SK-BR-3 cells = assay: feedback activation of HER3, downstream targets and apoptosis markers in SK-BR-3 cells; assay type: cell-based, human; conditions: for phosphorylation of HER2, HER3, and their downstream targets: 3 hours; for phosphorylation of HER2, HER3, and their downstream targets / BIM and cleaved PARP: 30 to 300 nmol/L; for phosphorylation of HER2, HER3, and their downstream targets (AKT and ERK) / BIM and cleaved PARP: 48 hours
Source text: The effect of Compound (1) on feedback activation of HER3, its downstream targets (ERK and AKT), and apoptosis markers (BIM and cleaved PARP) in SK-BR-3 cells was investigated. In addition, the same information for lapatinib and tucatinib (a reversible inhibitor of HER2) was obtained.

[2] = system: NCI-N87 xenografts relapsed from T-DM1; conditions: 10 mg/kg/day iv Day 1
Procedure: Male nude mice (BALB/cAJ1-mu/mu) were implanted with NCI-N87 human gastric carcinoma (HER2 overexpressing); 1.0×10^7 cells in 100 μL of PBS were implanted subcutaneously per mouse.
PO; or treated with an oral suspension of Compound (1) once per day at a dosage of 25 mg/kg/day, PO. The tumor volumes (TV, mm^3) and body weights of the mice were recorded.

[3] = system: NCI-N87 tumor fragment #6, clone 3; assay: refractory T-DM1 monoclonal cell line model, comparison to DS-8201a; assay type: in vivo, male mice; conditions: single iv dose of 10 mg/kg T-DM1
Procedure: The obtained cell line was implanted into BALB/cAJcl-mu/nu male mice (8.0×10^6 cells in 100 μL of PBS/mouse, subcutaneous) for the efficacy test.
The tumor volumes (TV, mm) and body weights of the mice were recorded.

[4] = system: NCI-N87 human gastric carcinoma (HER2 overexpressing) xenografts; assay: refractory T-mab/P-mab model Step I; assay type: in vivo, male nude mice (BALB/cAJcl-mu/mu)
Procedure: Male nude mice (BALB/cAJcl-mu/mu) were implanted with NCI-N87 human gastric carcinoma (HER2 overexpressing); 1.0×10^7 cells in 100 μL of PBS were implanted subcutaneously per mouse.

[5] = system: MCF10A_HER2/insYVMA_v human mammary epithelial xenografts; assay: antitumor effect in nude mice bearing MCF10A_HER2/insYVMA_v xenografts; assay type: in vivo; conditions: Day 15
Procedure: The antitumor effect of Compound (1) was evaluated in a nude mouse xenograft model of MCF10A_HER2/insYVMA_v. MCF10A_HER2/insYVMA_v was established as stably growing cells in vivo derived from MCF10A HER2/insYVMA (a human mammary epithelial cell line engineered to express the HER2 exon 20 insertion mutation A775_G776insYVMA) xenografts subcutaneously transplanted into nude mice. Compound (1) suspensions (using 0.5% w/v HPMC as vehicle) were administered orally once daily to mice at doses of 7.8, 12.5, or 20.0 mg/kg/day for 14 days. The control group received 0.5% weight per volume (w/v) hydroxypropyl methylcellulose (HPMC) solution orally once daily for 14 days.
In addition, the antitumor effect of poziotinib (an irreversible inhibitor of EGFR, HER2, and HER4) was also evaluated using this model.

[6] = system: NCI-N87 human gastric carcinoma xenografts; assay: antitumor effect in nude mice bearing NCI-N87 xenografts; assay type: in vivo; conditions: Day 15
Procedure: The antitumor effect of Compound (1) was evaluated in nude mice bearing HER2-overexpressing NCI-N87 human gastric carcinoma xenografts. Compound (1) dosing suspensions using 0.5% w/v hydroxypropyl methylcellulose (HPMC) as vehicle were prepared at 4 dose levels (3.1, 6.3, 12.5, and 25.0 mg/kg/day) and administered orally once daily for 14 days. In addition, the antitumor effect of poziotinib, which is a pan-ErbB inhibitor and currently under clinical development for the treatment of cancer with epidermal growth factor receptor containing HER2 exon 20 insertion mutations, was also evaluated using this model. Poziotinib was administered orally once daily for 14 days at 2 dose levels (0.5 or 1.0 mg/kg/day). The control group received 0.5% w/v HPMC once daily for 14 days.

[7] = system: intracranial NCI-N87-luc human gastric carcinoma xenografts; assay: intracranial antitumor effect, NCI-N87-luc xenografts; assay type: in vivo, nude mice; conditions: Day 22
Procedure: The intracranial antitumor effect of Compound (1) was evaluated using Compound (1) in nude mice intracranially implanted with NCI-N87-luc cells, which were engineered to stably express the luciferase gene using the HER2-overexpressing NCI-N87 human gastric carcinoma cell line. Compound (1) dosing suspensions using 0.5% w/v HPMC as vehicle were prepared with Compound (1) at 3 dose levels (16.0, 20.0, or 25.0 mg/kg/day) and administered PO QD for 21 days. The control group received 0.5% weight per volume (w/v) hydroxypropyl methylcellulose (HPMC) solution orally once daily for 21 days. The antitumor effect of poziotinib was also evaluated using this model. Poziotinib was administered PO QD for 21 days at 2 dose levels (0.5 or 1.0 mg/kg/day).

[8] = Step I Day 22, 20 mg/kg/day (each) ip Days 1, 8, 15

## CS(=O)(=O)CCNCc1ccc(-c2ccc3ncnc(Nc4ccc(OCc5cccc(F)c5)c(Cl)c4)c3c2)o1 [lapatinib]
[1]
  GI50: 89.5 ± 39.5 nM
SK-BR-3 cells
  phosphorylation of HER2, HER3, and their downstream targets: inhibited the phosphorylation
  phosphorylation of HER2, HER3, and their downstream targets (AKT and ERK): increased again
  BIM and cleaved PARP: increased

## CCOc1cc2ncc(C#N)c(Nc3ccc(OCc4ccccn4)c(Cl)c3)c2cc1NC(=O)/C=C/CN(C)C [neratinib]
[1]
  GI50: 3 ± 0.6 nM

## trastuzumab emtansine [T-DM1]
[2]; Day 22 to Day 1 (Step II)
  RTV (mean ± SE): 1.73
[2]; Step II Day 22
  TV (mean ± SE): 595.1 mm^3
[2]; Step II Day 22, reference group
  T/C: 100.0%
[3]
  antitumor effect (tumor volume): failing to inhibit tumor growth

## pertuzumab [P-mab]
[4]; Day 22 to Day 0 (Step I), 20 mg/kg/day (each) ip Days 1, 8, 15
  RTV (mean ± SE): 4.0
[4]; Step I Day 22, vs non-treatment control, 20 mg/kg/day (each) ip Days 1, 8, 15
  T/C: 76.5%
[4]; [8]
  Number of Death: 0
  TV (mean ± SE): 1233.1 mm^3
[4]; mouse, in vivo, ip, 20 mg/kg/day
  BWC (mean ± SE): 10.20%

## C=CC(=O)Nc1cc(Nc2nccc(-c3cn(C)c4ccccc34)n2)c(OC)cc1N(C)CCN(C)C [osimertinib]
[1]
  GI50: 29.4 ± 1.5 nM

## C=CC(=O)N1CCC(Oc2cc3c(Nc4ccc(Cl)c(Cl)c4F)ncnc3cc2OC)CC1 [poziotinib, reference compound]
[1]
  GI50: 0.3 ± 0.2 nM
[5]; 0.5 mg/kg/day
  T/C ratio of the mean tumor volume: 29.0%
[5]; 1.0 mg/kg/day
  T/C ratio of the mean tumor volume: 8.3%
[6]; 0.5 mg/kg/day orally once daily 14 days
  T/C ratio of the mean tumor volumes: 44.2%
[6]; 1.0 mg/kg/day orally once daily 14 days
  T/C ratio of the mean tumor volumes: 8.8%
[7]; 0.5 mg/kg/day PO QD 21 days
  T/C ratio of the mean total flux: 39.0%
[7]; 0.5 mg/kg/day
  mean body weight change (BWC): 2.5%
[7]; 1.0 mg/kg/day PO QD 21 days
  T/C ratio of the mean total flux: 21.1%
[7]; 1.0 mg/kg/day
  mean body weight change (BWC): −0.3%

## Cc1cc(Nc2ncnc3ccc(NC4=NC(C)(C)CO4)cc23)ccc1Oc1ccn2ncnc2c1 [tucatinib]
[1]
  GI50: 27.6 ± 5.5 nM
SK-BR-3 cells
  phosphorylation of HER2, HER3, and their downstream targets: inhibited the phosphorylation
  phosphorylation of HER2, HER3, and their downstream targets (AKT and ERK): increased again
  BIM and cleaved PARP: increased

## CN(C)C/C=C/C(=O)Nc1cc2c(Nc3ccc(F)c(Cl)c3)ncnc2cc1O[C@H]1CCOC1 [afatinib]
[1]
  GI50: 5.6 ± 2.7 nM
